Experimental data taken from patent US8415299B2, “Methods for improved avian performance” (priority 2004, dated 2013).
Like-named read-outs stand apart in the source and are kept apart here.

Key:
[1] = test system: Cobb broiler breeder hens and roosters; format: in vivo; settings: for # Eggs per pen: 40 ppm feed from 22-Sep, pen 51
From the text: Molting Cobb Broiler Breeder Hens and Roosters with Dietary Thyroxine.

[2] = test system: 60-week old Hy-Line W-36 White Leghorn hens; settings: for Feed Intake: day 22 to day 28
Protocol: Experiment 1. […] The photoperiod was 17 hours of light per day (0330 hours to 2030 hours).

turkey hens = settings: cited from earlier work
[3] = test system: 96-week old Hy-Line W-36 White Leghorn hens
From the text: Experiment 3. […] The photoperiod serves as the primary environmental signal that regulates reproductive function in many avian species. Increasing the photoperiod promotes maturation of the gonads and reproductive tract, whereas reducing the photoperiod causes the gonads and reproductive tract to regress and molting to occur.

[4] = 20 mg/kg feed, 8 hr L, Day 30-34
[5] = 20 mg/kg feed, 8 hr L, Days 13-15
[6] = 20 mg/kg feed, 8 hr L, Days 16-22
[7] = 20 mg/kg feed, 17 hr L, Day 30-34
[8] = 20 mg/kg feed, 17 hr L, Days 13-15
[9] = 20 mg/kg feed, 17 hr L, Days 16-22
[10] = 40 mg T4/kg test diet, Chamber 6 (17 hr light)
[11] = 40 mg/kg feed, 8 hr L, Day 30-34
[12] = 40 mg/kg feed, 8 hr L, Days 13-15
[13] = 40 mg/kg feed, 8 hr L, Days 16-22
[14] = 40 mg/kg feed, 17 hr L, Day 30-34
[15] = 40 mg/kg feed, 17 hr L, Days 13-15

**Q.** What does the source list for N[C@@H](Cc1cc(I)c(Oc2cc(I)c(O)c(I)c2)c(I)c1)C(=O)O [L-thyroxine, 3,5,3′,5′-tetraiodothyronine]?
**A.** # Eggs per pen ([1]; 22-Oct): 0; # Eggs per pen ([1]; 22-Sep): 18; # Eggs per pen ([1]; 23-Oct): 0; # Eggs per pen ([1]; 23-Sep): 15; # Eggs per pen ([1]; 24-Oct): 0; # Eggs per pen ([1]; 24-Sep): 10; # Eggs per pen ([1]; 25-Oct): 0; # Eggs per pen ([1]; 25-Sep): 11; # Eggs per pen ([1]; 26-Oct): 0; # Eggs per pen ([1]; 26-Sep): 6; # Eggs per pen ([1]; 27-Oct): 0; # Eggs per pen ([1]; 27-Sep): 5; # Eggs per pen ([1]; 28-Oct): 0; # Eggs per pen ([1]; 28-Sep): 0; # Eggs per pen ([1]; 29-Oct): 3; # Eggs per pen ([1]; 29-Sep): 1; # Eggs per pen ([1]; 30-Oct): 3; # Eggs per pen ([1]; 30-Sep): 0; # Eggs per pen ([1]; 31-Oct): 3; Time to reduced feed intake, ceased egg production and start of feather molt ([1]; Cobb broiler breeder hens on thyroxine treated feed (25 or 40 mg/kg)): 15 to 17 days; Effect on egg production ([2]; 250 μg T4 per kg body weight i.m. for 12 consecutive days): did not reduce egg production significantly; Day after start of T4 injection on which molting began in all cages ([2]; 500 μg T4 Group): 11 days; Time after start of injecting at which egg production was significantly reduced ([2]; 500 μg T4 Group): 4 days; Day after start of T4 injection on which molting began in all cages ([2]; 1,000 μg T4 Group): 9 days; Time after start of injecting at which egg production was significantly reduced ([2]; 1,000 μg T4 Group): 4 days; Mortality ([2]; 1,000 μg T4 Group, 2 of 8 hens, died 9th and 10th day after start of injection): 25%; Day after start of injection on which molting commenced in all cages ([2]; 2,000 μg T4 Group): 9 days; Time to rapid and complete cessation of egg production ([2]; 2,000 μg T4 per kg body weight i.m. for 3 consecutive days): ≤ 6 days; Day after start of injection on which molting commenced in all cages ([2]; 4,000 μg T4 Group): 9 days; Mortality ([2]; 4000 μg T4 Group, 1 of 4 hens, died 8th day after start of injection): 25%; Time to rapid and complete cessation of egg production ([2]; 4,000 μg T4 per kg body weight i.m. for 3 consecutive days): ≤ 4 days; End of Injections Body Weight ([2]; 250 mcg/kg BW i.m. 12 d): 1300 g; Feed Intake ([2]; 250 mcg/kg BW i.m. 12 d): 58.7 g/hen/day; Feed Intake ([2]; 500 mcg/kg BW i.m. 8 d): 52.3 g/hen/day; Feed Intake ([2]; 1,000 mcg/kg BW i.m. 8 d): 31.4 g/hen/day; Feed Intake ([2]; 2,000 mcg/kg BW i.m. 3 d): 20.2 g/hen/day; Feed Intake ([2]; 4,000 mcg/kg BW i.m. 3 d): 11.7 g/hen/day; Time out of egg production after treatment (turkey hens; 2 mg/hen/day i.m. (Lien and Siopes 1993)): 4 weeks; Egg laying (turkey hens; 3 mcg/mL water (600 to 900 mcg/bird/day), 20 to 25 week old turkey females (Bilezikian et al. 1980)): rarely lay eggs; Molting ([3]; 20 mg T4/kg groups, either chamber): None of the hens in the Control groups or 20 mg T4/kg groups molted in either chamber; Time within which egg production was significantly reduced ([3]; 20 mg T4/kg, Chamber 6 (17 hr light)): ≤ 8 days; Hen-day egg production ([3]; 20 mg/kg feed 12 d from day 13, 8 hr L, day 30): 6.3%; Feed consumption (FC) [3, 4]: 82.5 g/hen/d; Feed consumption change from days 1-12 (% FCC) [3, 4]: −32.0%; Feed consumption (FC) ([3]; 20 mg/kg feed, 8 hr L, Days 1-12 (pre-treatment)): 121.3 g/hen/d; Feed consumption (FC) [3, 5]: 41.8 g/hen/d; Feed consumption change from days 1-12 (% FCC) [3, 5]: −65.5%; Feed consumption (FC) [3, 6]: 44.5 g/hen/d; Feed consumption change from days 1-12 (% FCC) [3, 6]: −63.3%; Feed consumption (FC) [3, 7]: 135.0 g/hen/d; Feed consumption change from days 1-12 (% FCC) [3, 7]: 11.1%; Feed consumption (FC) ([3]; 20 mg/kg feed, 17 hr L, Days 1-12 (pre-treatment)): 121.5 g/hen/d; Feed consumption (FC) [3, 8]: 58.0 g/hen/d; Feed consumption change from days 1-12 (% FCC) [3, 8]: −52.3%; Feed consumption (FC) [3, 9]: 51.8 g/hen/d; Feed consumption change from days 1-12 (% FCC) [3, 9]: −57.4%; Hens that molted fully ([3]; 40 mg T4/kg Group, Chamber 5 (8 hr light), 7/12): 58%; Loss of initial body weight [3, 10]: approximately 18%; Reduction of feed intake [3, 10]: approximately 65%; Time within which egg production was significantly reduced ([3]; 40 mg T4/kg, Chamber 6 (17 hr light)): ≤ 6 days; Hens that molted fully ([3]; 40 mg T4 kg Group, Chamber 6 (17 hr light)): 100%; Hen-day egg production ([3]; 40 mg/kg feed 12 d from day 13, 17 hr L, day 22): 0.0%; Hen-day egg production ([3]; 40 mg/kg feed 12 d from day 13, 17 hr L, day 24): 0.0%; Hen-day egg production ([3]; 40 mg/kg feed 12 d from day 13, 17 hr L, day 26): 0.0%; Hen-day egg production ([3]; 40 mg/kg feed 12 d from day 13, 17 hr L, day 28): 0.0%; Hen-day egg production ([3]; 40 mg/kg feed 12 d from day 13, 17 hr L, day 30): 0.0%; Hen-day egg production ([3]; 40 mg/kg feed 12 d from day 13, 17 hr L, day 32): 0.0%; Hen-day egg production ([3]; 40 mg/kg feed 12 d from day 13, 17 hr L, day 34): 0.0%; Feed consumption (FC) [3, 11]: 104.8 g/hen/d; Feed consumption change from days 1-12 (% FCC) [3, 11]: −9.5%; Feed consumption (FC) ([3]; 40 mg/kg feed, 8 hr L, Days 1-12 (pre-treatment)): 115.8 g/hen/d; Feed consumption (FC) [3, 12]: 36.8 g/hen/d; Feed consumption change from days 1-12 (% FCC) [3, 12]: −68.2%; Feed consumption (FC) [3, 13]: 35.3 g/hen/d; Feed consumption change from days 1-12 (% FCC) [3, 13]: −69.5%; Feed consumption (FC) [3, 14]: 93.3 g/hen/d; Feed consumption change from days 1-12 (% FCC) [3, 14]: −9.7%; Feed consumption (FC) ([3]; 40 mg/kg feed, 17 hr L, Days 1-12 (pre-treatment)): 103.3 g/hen/d; Feed consumption (FC) [3, 15]: 42.0 g/hen/d; Feed consumption change from days 1-12 (% FCC) [3, 15]: −59.3%; Feed consumption change from days 1-12 (% FCC) ([3]; 40 mg/kg feed, 17 hr L, Days 16-22): −63.7%; Mortality ([3]; 20, 40 mg T4/kg feed 12 days): No mortality occurred in any of the Groups; Time within which egg production was significantly reduced ([3]; 20 and 40 mg T4/kg, Chamber 5 (8 hr light)): ≤ 4 days
